# Values of other authors as cited in US20070154432A1, “Compositions and methods for hair growth” (priority 2005, published 2007).
# What was measured:
# [1] = tested on: 5α-alpha reductase; conditions: individually shown / studies have suggested
# [2] = 200 individual; published in the Federal Register
Compound,inhibition of 5α-alpha reductase (in words) [1],"toxicity, irritation and allergenicity by Schwartz patch test [2]"
"CC/C=C\C/C=C\C/C=C\CCCCCCCC(=O)O [ALA, Alpha Linolenic Acid]",inhibit,–
"NC(=O)NC1NC(=O)NC1=O (centres unmarked) [Allantoin, allantoin]",–,"nontoxic, nonirritating and non-allergenic"
"CCCCC/C=C\C/C=C\C/C=C\CCCCC(=O)O [GLA, Gamma Linolenic Acid]",inhibit,–
"CCCCC/C=C\C/C=C\CCCCCCCC(=O)O [linoleic acid, Linoleic Acid]",inhibit,–
[Zn] [zinc],inhibits,–
